The test system of series [1] is J774 murine macrophage cell line.
Series [2] is described as follows: Osmolality by vapor pressure osmometer, osmotic coefficient. It counts as physicochemical.
For the next series, the system named is mouse splenocytes. As to conditions: 24 h; for concentration with cytotoxicity (viability diminishes): splenocytes, medium without added buffer.
For series [3] the following is noted: Yoshizawa-Fujita 2007; cited from earlier work.
Series [4] deals with J774 murine macrophage cell line. The experiment in a line: cells. The conditions noted are these: Mus musculus, J774, 48 h.
The conditions of series [5]: cited from earlier work.
For series [6] the following is noted: 350 mg/ml vs 1 mg/ml, aqueous solvent; cited from earlier work.
The mark [7] stands for this setting: 100 mM solutions in deionized water.
Setting [8] is: read-out: Log EC50, μM (Dose Response Model) (converted).

Several values for one entry are separate records, joined by “and”; a condition that tells them apart may be missing. Identical values can stand only once. Like-named read-outs stand apart in the source and are kept apart here.

As to `CCCCC(CC)COP(=O)(O)OCC(CC)CCCC.CN(C)CCO` (stereo not shown) [CBEH, Choline bis(2,ethyl hexyl) phosphate], in series [1], the “anion effect ratio (AR)” value was found to be 113 and the “shape of dose response” value is “hormetic response”. Also, the “Log EC50, μM (Dose Response Model)” value in [1] (J774, 48 h, value is the logarithm of EC50, error of last digit in parentheses, equation 1) is recorded as 2.47 (3) μM. Moreover, the “Log EC50, μM (Logistic Model)” value in series [1] (J774, 48 h, value is the logarithm of EC50, modified (hormesis) model, equation 2, error of last digit in parentheses) is given as 2.43 (3) μM. This compound also came in with an EC50 in series [1] (J774, 48 h exposure) of 0.3 mM. Besides, the “osmotic coefficient (φ)” value in [2] (100 mM in water, 1 indicates 100% dissociation) worked out at 0.3. For the same compound, the “Osmotic Coef., φ in H2O” value in [2] (setting [7]) is on record as 0.31.
In the case of `C[N+](C)(C)CCO.O=P([O-])(O)O` [CDHP, choline dihydrogen phosphate], the “concentration range with no cytotoxic activity detected” value in the series with mouse splenocytes (buffered medium ([…] (w/v) sodium bicarbonate)) was in the range of 0 to 8e+07 nM; in the series with B16-F10 melanoma cells (buffered medium ([…] (w/v) sodium bicarbonate), 24 h), 0 to 8e+07 nM. The “concentration with cytotoxicity (viability diminishes)” value with mouse splenocytes was > 35000 µM and > 40000 µM; in the series on mouse splenocytes (listed as Choline-DHP), > 30000 µM. Besides, the “cytotoxic effect toward HT-2 lymphocytes” value in the series on HT-2 cells is reported as “no immediate cytotoxic effect”. The “concentration range not cytotoxic” value in the series on HT-2 cells (mouse) lay in the range of 0 to 3e+07 nM. Further, the “shape of dose response” value in series [1] is recorded as “hormetic response”. Also, the “anion effect ratio (AR)” value in series [1] (mouse, pH 7.53) worked out at 1.7. In addition, the concentration not cytotoxic in the series on B16-F10 melanoma cells (final culture medium concentration) lay within 1000 to 30000 µM. In the series with B16-F10 melanoma cells (up to 80 mM C-DHP, DMEM F12 complete medium, 24 h, not buffered), the cytotoxic activity result is “doesn't demonstrate any significant cytotoxic activity”. In addition, the “thermal stability by thermal gravimetric analysis” value in series [3] was “up to 200 °C”. Also, the EC50 was 20000 µM in [4]; 20400 µM in series [4] (setting [8]); 19100 µM in series [4] (read-out: Log EC50, μM (Logistic Model) (converted)).
Consider `C[N+](C)(C)CCO.[Cl-]` [Choline chloride, reference compound], for which the half-maximal effective concentration (EC50) in series [1] is 33.7 mM; in [4], 34000 µM; in series [4] (setting [8]), 33900 µM. For the same compound, the “Osmotic Coef., φ in H2O” value in series [2] stood at 0.86.
On to `[Cl-].[Na+]` [Sodium chloride, reference compound], for which, in series [1], the EC50 was 63 mM and 62.8 mM; the “Log EC50, μM (Dose Response Model)” value is on record as 4.8 (1) μM. In addition, the “Osmotic Coef., φ in H2O” value in series [2] came out at 0.91.
Consider `OC[C@H]1O[C@H](O[C@H]2O[C@H](CO)[C@@H](O)[C@H](O)[C@H]2O)[C@H](O)[C@@H](O)[C@@H]1O` [Trehalose, reference compound], for which, in [2] (setting [7]), the “Osmotic Coef., φ in H2O” value was found to be 1.01. Further, in series [4], the concentration for a half-maximal effect (EC50) was > 100000 µM.
Choline dibutyl phosphate [CDBP]: in series [1], the EC50 amounted to 9.1 mM; the “Log EC50, μM (Dose Response Model)” value is 3.96 (3) μM; the “anion effect ratio (AR)” value turned out to be 3.7. Also, in series [2], the “Osmotic Coef., φ in H2O” value amounted to 0.90 and the “osmotic coefficient (φ)” value was 0.9.
In the case of “cyt C: cytochrome c, protein of earlier literature studies in 80% w/w CDHP”, the “thermal transition midpoint temperature before shift” value in series [5] (Fujita 2006, 2007) is listed as 80 C.°. In addition, the concentration dissolved in series [5] (in 80% w/w CDHP (Fujita 2005, 2006)) was 37000 µg/mL. Further, the “thermal transition midpoint temperature after shift” value in [5] (stabilized in CDHP, Fujita 2006, 2007) was 120 C.°.
For the compound fibrinogen, the “increase of transition temperature at the higher concentration” value in series [6] is 3 °C.
As for hemoglobin, in series [6], the “increase of transition temperature at the higher concentration” value was 8 °C.

In general, EC50 refers to the concentration giving half of the maximal effect.

Source of the values: US9289381B2, “Stabilization and storage of biological pharmaceutical compositions” (The University of North Carolina at Charlotte, priority 2009, dated 2016).
